In publication PMC4914611 (Nature nanotechnology, 2013):

Biological target: CM11CD746~1R~TET (Chara corallina, UniProt Q9SSU1)
Settings: actin filaments; 25 mM imidazole, 25 mM KCl, 1 mM EGTA, 2 mM free Mg2+

CM11CD746~1R~TET, sequence (Q9SSU1 1-746): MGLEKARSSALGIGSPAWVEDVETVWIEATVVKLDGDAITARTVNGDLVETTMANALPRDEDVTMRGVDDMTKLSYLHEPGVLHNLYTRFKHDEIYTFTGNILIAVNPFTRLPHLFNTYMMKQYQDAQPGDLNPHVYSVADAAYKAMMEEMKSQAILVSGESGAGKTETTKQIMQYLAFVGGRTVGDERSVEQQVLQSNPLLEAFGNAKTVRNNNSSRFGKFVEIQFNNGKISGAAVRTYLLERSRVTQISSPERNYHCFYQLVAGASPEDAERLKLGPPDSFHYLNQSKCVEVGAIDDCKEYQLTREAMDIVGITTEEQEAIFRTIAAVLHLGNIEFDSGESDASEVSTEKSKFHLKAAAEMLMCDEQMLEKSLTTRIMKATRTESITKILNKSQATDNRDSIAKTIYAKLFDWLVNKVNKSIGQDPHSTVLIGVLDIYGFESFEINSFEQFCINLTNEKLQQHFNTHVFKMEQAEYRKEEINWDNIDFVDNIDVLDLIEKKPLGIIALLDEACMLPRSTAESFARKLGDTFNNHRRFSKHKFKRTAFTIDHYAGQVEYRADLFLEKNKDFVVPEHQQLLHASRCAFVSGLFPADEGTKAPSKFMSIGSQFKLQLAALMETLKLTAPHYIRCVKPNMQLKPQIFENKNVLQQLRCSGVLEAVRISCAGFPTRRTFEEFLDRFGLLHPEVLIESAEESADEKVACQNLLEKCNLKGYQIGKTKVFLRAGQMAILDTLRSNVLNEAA

SMILES: Nc1ncnc2c1ncn2[C@@H]1O[C@H](COP(=O)(O)OP(=O)(O)OP(=O)(O)O)[C@@H](O)[C@H]1O [ATP]
- single-molecule fluorescence tracking, run length and velocity vs [ATP]: velocities are shown (mean ± s.e.m.) as a function of [ATP]
